In PubChem BioAssay (NCI):
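Results reflect a 48-hour exposure of cells in 96-well plates to compound at five concentrations. TGI denotes the concentration required for complete inhibition of growth.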

What was measured:
Experiment in all cases: NCI anticancer screen, dose series, 48 h
[1] = test system: COLO 205 colon
[2] = test system: OVCAR-8 ovarian
[3] = test system: ACHN renal
[4] = test system: KM20L2 colon
[5] = test system: XF 498 CNS
[6] = test system: SF-539 CNS
[7] = test system: SN12C renal
[8] = test system: SNB-75 CNS
[9] = test system: OVCAR-4 ovarian
[10] = test system: SF-295 CNS
[11] = test system: OVCAR-3 ovarian
[12] = test system: UACC-257 melanoma
[13] = test system: CCRF-CEM leukemia
[14] = test system: T-47D breast
[15] = test system: RPMI-8226 leukemia
[16] = test system: RXF 393 renal
[17] = test system: IGROV1 ovarian
[18] = test system: HCT-116 colon
[19] = test system: HCT-15 colon
[20] = test system: MOLT-4 leukemia
[21] = test system: SK-MEL-5 melanoma
[22] = test system: SK-MEL-28 melanoma
[23] = test system: NCI/ADR-RES ovarian
[24] = test system: HCC-2998 colon
[25] = test system: SK-MEL-2 melanoma
[26] = test system: SW-620 colon
[27] = test system: NCI-H226 lung
[28] = test system: MDA-MB-231 breast
[29] = test system: MALME-3M melanoma
[30] = test system: 786-0 renal
[31] = test system: M19-MEL melanoma
[32] = test system: DMS 114 small cell lung
[33] = test system: BT-549 breast
[34] = test system: DU-145 prostate
[35] = test system: HT29 colon
[36] = test system: LOX IMVI melanoma
[37] = test system: HOP-18 NSCLC
[38] = test system: DLD-1 colon
[39] = test system: A498 renal
[40] = test system: HS 578T breast
[41] = test system: UO-31 renal
[42] = test system: MDA-MB-435
[43] = test system: KM12 colon
[44] = test system: K-562 leukemia
[45] = test system: NCI-H522 lung
[46] = test system: TK-10 renal
[47] = test system: SR leukemia
[48] = test system: SNB-19 CNS
[49] = test system: SNB-78 CNS
[50] = test system: MDA-N
[51] = test system: HL-60(TB) leukemia
[52] = test system: UACC-62 melanoma
[53] = test system: A549 NSCLC
[54] = test system: SF-268 CNS
[55] = test system: SK-OV-3 ovarian
[56] = test system: HOP-92 NSCLC
[57] = test system: EKVX NSCLC
[58] = test system: U251 CNS
[59] = test system: HOP-62 NSCLC
[60] = test system: LXFL 529 NSCLC
[61] = test system: DMS 273 small cell lung
[62] = test system: PC-3 prostate
[63] = test system: CAKI-1 renal
[64] = test system: NCI-H460 lung
[65] = test system: NCI-H23 lung
[66] = test system: OVCAR-5 ovarian
[67] = test system: M14 melanoma

C=C(CN(C)C)C(=O)c1ccccc1OC showed a TGI [1] of 11 µM, a TGI [2] of 50 µM and a TGI [3] of 28.2 µM. The TGI [4] was 50.8 µM, the TGI [5] was 32.3 µM and the TGI [6] was 31.5 µM. For the same compound, the TGI [7] was 40 µM, the TGI [8] was 61 µM and the TGI [9] was 45.9 µM. For the same compound, the TGI [10] was > 71.9 µM, the TGI [11] was 32.9 µM and the TGI [12] was 30 µM. The TGI [13] was 14.5 µM, the TGI [14] was 38.5 µM and the TGI [15] was > 62.7 µM. For the same compound, the TGI [16] was 23.7 µM, the TGI [17] was 58.1 µM and the TGI [18] was 30.9 µM. For the same compound, the TGI [19] was 33.3 µM, the TGI [20] was > 20.8 µM and the TGI [21] was 31.1 µM. The TGI [22] was 38.2 µM, the TGI [23] was 65.3 µM and the TGI [24] was 51.1 µM. It also gave a TGI [25] of 30 µM, a TGI [26] of 19.6 µM and a TGI [27] of 62.7 µM. The TGI [28] was 28 µM, the TGI [29] was 16.5 µM and the TGI [30] was 30 µM. The TGI [31] was 32.4 µM, the TGI [32] was 42.5 µM and the TGI [33] was 31.9 µM. The TGI [34] was > 64 µM, the TGI [35] was 46 µM and the TGI [36] was 29.3 µM. For the same compound, the TGI [37] was 20.2 µM, the TGI [38] was 14.2 µM and the TGI [39] was 64 µM. For the same compound, the TGI [40] was 56.8 µM, the TGI [41] was 31.3 µM and the TGI [42] was 34.2 µM. The TGI [43] was 63 µM, the TGI [44] was > 54.1 µM and the TGI [45] was 6.01 µM. The TGI [46] was 30.3 µM, the TGI [47] was > 56 µM and the TGI [48] was > 87.6 µM. The TGI [49] was 62.8 µM, the TGI [50] was 34 µM and the TGI [51] was > 35.8 µM. For the same compound, the TGI [52] was 37 µM, the TGI [53] was > 100 µM and the TGI [54] was 63.7 µM. The TGI [55] was > 66.1 µM, the TGI [56] was 32.1 µM and the TGI [57] was 48.6 µM. The TGI [58] was 66.3 µM, the TGI [59] was > 100 µM and the TGI [60] was 11.5 µM. The TGI [61] was 34 µM, the TGI [62] was 31.9 µM and the TGI [63] was 26.1 µM. It also gave a TGI [64] of 63.2 µM, a TGI [65] of 33.7 µM and a TGI [66] of 38.5 µM. For the same compound, the TGI [67] was 28.9 µM.
